Laboratory results published in patent US12037324B2, “Biarylmethyl heterocycles” (Université de Montréal, priority 2016, dated 2024).
pEC50: −log10 of the molar value.

What was measured:
Format in all cases: cell-based
AGTR1 = biological target: T1, AGTR1 (Homo sapiens, UniProt P30556); experiment: DiscoveRx β-arrestin2 recruitment assay (enzyme complementation, Pathunter CHO-K1 AGTR1 β-arrestin cell line); conditions: DiscoveRx β-arrestin2 recruitment
T1 construct: host or cells: Pathunter CHO-K1 AGTR1 β-arrestin cell line (CHO-K1)
T1 sequence (P30556 1-359): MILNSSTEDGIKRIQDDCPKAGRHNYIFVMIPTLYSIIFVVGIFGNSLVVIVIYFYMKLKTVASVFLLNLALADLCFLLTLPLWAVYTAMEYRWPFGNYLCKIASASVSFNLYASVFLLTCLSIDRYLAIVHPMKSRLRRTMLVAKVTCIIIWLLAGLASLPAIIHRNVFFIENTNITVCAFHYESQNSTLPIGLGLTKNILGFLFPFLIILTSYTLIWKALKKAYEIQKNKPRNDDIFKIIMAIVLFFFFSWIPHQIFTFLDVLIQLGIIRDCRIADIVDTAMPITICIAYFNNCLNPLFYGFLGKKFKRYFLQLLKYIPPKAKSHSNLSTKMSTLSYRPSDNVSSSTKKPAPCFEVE
Summary of the method: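 Chemiluminescent enzyme-complementation read-out of β-arrestin2 recruitment to AGTR1 in engineered CHO-K1 cells after 90 min compound exposure at 37° C. Values are 4-parameter logistic EC50s in agonist mode, IC50s in antagonist mode, with efficacy relative to the maximal All response.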

hAT1R [1] = biological target: T2, hAT1R (Homo sapiens, UniProt P30556); experiment: BRET β-arrestin2 biosensor assay, higher receptor expression (hAT1R 5 ng/well), HEK293 cells; conditions: for pEC50: High AT1R Expression
T2 sequence (P30556 1-359): T1 sequence (P30556 1-359)

hAT1R [2] = biological target: T2, hAT1R; experiment: BRET Gq biosensor assay, agonist response, HEK293 cells; conditions: section of the 42nd table directly before the BRET P63 section
Summary of the method: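 Agonist EC50 derived from a 4-parameter fit of BRET2 ratio (GFP 515 nm/Rluc 410 nm), scaled between unstimulated control and maximal AngII response. Readings taken 5 min after compound addition at room temperature, with 2 μM coelenterazine, in HEK293 cells expressing hAT1R, Gαq-Rluc, Gβ1 and GFP-Gγ1 (transfected two days earlier).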

| Compound | DiscoveRx β-arrestin2 Ymax (%) (AGTR1) | pEC50 (AGTR1) | BRET β-Arrestin2 High AT1R Expression Ymax (%) (hAT1R [1]) | pEC50 (hAT1R [1]) | pEC50 (hAT1R [2]) | DiscoveRx β-arrestin2 Ymax (%) (AGTR1; maximal response) |
| --- | --- | --- | --- | --- | --- | --- |
| CCCCC(=O)N(Cc1ccc(-c2cc(-c3ccccc3)ccc2-c2nn[nH]n2)cn1)[C@H](C(=O)O)C(C)C [Example 431] | 26.0 | 6.71 | 92.7 | 5.80 | 6.04 |  |
| CCCCc1ncc(C(=O)NCc2cnccn2)n1Cc1ccc(-c2cc(-c3ccccc3)ccc2-c2nn[nH]n2)cc1 [Example 359] |  | 7.76 | 90.8 | 7.82 | 7.40 | 43.5 |
| CCCCc1nc(Cl)c(C(=O)O)n1Cc1ccc(-c2cc(-c3ccc(C(=O)N(C)C)cc3)ccc2-c2noc(=O)[nH]2)cc1 [Example 409] |  | 7.23 | 88.7 | 7.14 | 6.87 | 50.6 |
| CCCCc1ncc(C(=O)NCCC(C)(C)O)n1Cc1ccc(-c2cc(-c3ccccc3)ccc2-c2nn[nH]n2)cc1 [Example 350] |  | 8.08 | 94.3 | 7.81 | 7.60 | 47.0 |
| CCCC(=O)N(Cc1ccc(-c2cc(-c3ccccc3)ccc2-c2nn[nH]n2)nc1)[C@H](C(=O)O)C(C)C [Example 432] | 42.9 | 7.40 | 88.4 | 6.79 | 6.54 |  |
| CCCCC(=O)N(Cc1ccc(-c2cc(-c3ccc(NC(C)=O)cc3)ccc2-c2nn[nH]n2)cc1)C1(C(=O)O)CCCCC1 [Example 291] |  | 6.87 | 9.6 | 5.78 | < 4.00 | 10.0 |
| CCCCC(=O)N(Cc1ccc(-c2cc(-c3ccccc3)ccc2-c2nn[nH]n2)cc1)C1(C(=O)O)CC1 [Example 269] |  | 5.18 | 58.7 | 4.51 | < 4.00 | 14.2 |
| CCCCc1ncc(C(=O)NCC(C)(C)C)n1Cc1ccc(-c2cc(-c3ccccc3)ccc2-c2nn[nH]n2)cc1 [Example 373] |  | 7.85 | 71.4 | 7.41 | 6.13 | 29.5 |
| CCCCC(=O)N(Cc1ccc(-c2cc(-c3cccnc3OC)ccc2-c2nn[nH]n2)cc1)[C@H](C(=O)O)C(C)C [Example 439] | 26.4 | 6.96 | 35.8 | 6.93 | 6.41 |  |
| CCCCC(=O)N(Cc1ccc(-c2cc(-c3ccccc3)ccc2-c2nn[nH]n2)cc1)C1(C(=O)O)Cc2ccccc2C1 [Example 279] |  | 6.72 | 82.6 | 6.68 | < 4.00 | 33.7 |
| CCCCc1nc(Cl)c(C(=O)O)n1Cc1ccc(-c2cc(N3CCCC(F)(F)C3)ccc2-c2nn[nH]n2)cc1 [Example 416, 2-butyl-4-chloro-1-((5′-(3,3-difluoropiperidin-1-yl)-2′-(2H-tetrazol-5-yl)-[1,1′-biphenyl]-4-yl)methyl)-1H-imidazole-5-carboxylic acid] |  | 7.74 | 69.0 | 6.94 | < 4.00 | 29.5 |
| CCCCc1nc(Cl)c(C(N)=O)n1Cc1ccc(-c2cc(-c3ccccc3)ccc2-c2noc(=O)[nH]2)cc1 [Example 394] |  | 6.44 | 94.9 | 7.43 | 7.12 | 59.1 |
| O=C(O)c1cccc2nc(O)n(Cc3ccc(-c4cc(-c5ccccc5)ccc4-c4nn[nH]n4)cc3)c12 [Example 317] |  | 7.06 | 39.8 | 6.50 | 4.77 | 51.5 |
| CCCCc1ncc(C(=O)NCCOC)n1Cc1ccc(-c2cc(-c3ccccc3)ccc2-c2nn[nH]n2)cc1 [Example 374] |  | 7.98 | 94.4 | 7.87 | 7.79 | 44.3 |
| CCCCC(=O)N(Cc1ccc(-c2cc(Oc3cccnc3)ccc2-c2nn[nH]n2)cc1)C1(C(=O)O)CCCCC1 [Example 286] |  | 6.95 | 45.3 | 7.33 | 6.52 | 35.8 |
| CCCCC(=O)N(Cc1ccc(-c2cc(-c3cccnc3OC)ccc2-c2nn[nH]n2)cc1)C1(C(=O)O)CCCCC1 [Example 290] |  | 7.05 | 31.2 | 7.17 | 6.30 | 30.7 |
| CCCCc1ncc(-c2nnc(C)o2)n1Cc1ccc(-c2cc(-c3ccccc3)ccc2-c2nn[nH]n2)cc1 [Example 413, 2-(1-((6′-(2H-tetrazol-5-yl)-[1,1′:3′,1″-terphenyl]-4-yl)methyl)-2-butyl-1H-imidazol-5-yl)-5-methyl-1,3,4-oxadiazole] |  | 7.66 | 47.5 | 7.25 | 6.45 | 16.3 |
| CCCCc1ncc(C(=O)NC2CCCCCC2)n1Cc1ccc(-c2cc(-c3ccccc3)ccc2-c2nn[nH]n2)cc1 [Example 362] |  | 6.91 | 97.0 | 7.58 | 7.47 | 49.8 |
| CCCCc1ncc(C(=O)NCC(C)(C)COC)n1Cc1ccc(-c2cc(-c3ccccc3)ccc2-c2nn[nH]n2)cc1 [Example 360] |  | 7.53 | 75.0 | 7.45 | < 4.00 | 37.2 |
| CCCc1nc(CC)c(C(=O)O)n1Cc1ccc(-c2cc(-c3ccccc3)ccc2-c2noc(=O)[nH]2)cc1 [Example 399] |  | 7.87 | 92.1 | 8.14 | 5.93 | 45.8 |
| CCCCc1nc(Cl)c(C(=O)O)n1Cc1ccc(-c2cc(-c3cnn(C4CC4)c3)ccc2-c2nn[nH]n2)cc1 [Example 386] |  | 8.08 | 66.7 | 7.34 | 4.23 | 27.3 |
| CCCCC(=O)N(Cc1ccc(-c2cc(-c3ccccc3)ccc2-c2nn[nH]n2)cc1)[C@]1(C(=O)O)CC[C@@H](C)CC1 [Example 278] |  | 7.35 | 87.2 | 7.89 | 5.92 | 51.9 |
| CCCCc1ncc(C(=O)N2CCCCC2)n1Cc1ccc(-c2cc(-c3ccccc3)ccc2-c2nn[nH]n2)cc1 [Example 378] |  | 6.97 | 26.3 | 6.62 | 6.16 | 15.7 |
| CCCCc1ncc(C(=O)NCc2cc(C(C)C)no2)n1Cc1ccc(-c2cc(-c3ccccc3)ccc2-c2nn[nH]n2)cc1 [Example 363] |  | 7.97 | 100.4 | 7.62 | 7.22 | 46.2 |
